# Values quoted from earlier work in patent US8647824B2, “Microbial reductive dehalogenation of vinyl chloride” (The Board of Trustees of the Leland Stanford Junior …, priority 2004, dated 2014).
# Columns and labels:
# [1] = target: T1, TCE-reductive dehalogenase (TceA) (Dehalococcoides mccartyi, UniProt Q3ZAB8); conditions: TceA of D. ethenogenes 195; cited from earlier work
# T1 sequence (Q3ZAB8 43-554): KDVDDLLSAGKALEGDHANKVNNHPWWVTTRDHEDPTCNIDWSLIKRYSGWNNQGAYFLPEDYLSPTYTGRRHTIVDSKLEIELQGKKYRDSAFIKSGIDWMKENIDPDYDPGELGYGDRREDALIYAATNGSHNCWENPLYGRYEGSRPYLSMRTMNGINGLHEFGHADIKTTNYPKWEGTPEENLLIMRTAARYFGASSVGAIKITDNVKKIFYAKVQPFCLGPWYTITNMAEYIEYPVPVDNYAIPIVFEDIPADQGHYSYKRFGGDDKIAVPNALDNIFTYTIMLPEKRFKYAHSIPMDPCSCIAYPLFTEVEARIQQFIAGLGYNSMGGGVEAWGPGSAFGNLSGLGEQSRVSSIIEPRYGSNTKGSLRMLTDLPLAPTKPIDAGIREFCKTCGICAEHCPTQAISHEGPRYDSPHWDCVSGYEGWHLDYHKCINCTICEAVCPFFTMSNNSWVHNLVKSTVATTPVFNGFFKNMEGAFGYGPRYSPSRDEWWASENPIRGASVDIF
# [2] = test system: highly enriched culture of strain VS; conditions: previously determined; cited from earlier work
smiles,measurement,setting,value
"C=CCl [VC, vinyl chloride]",VC-reduction rate relative to activity of TCE- and cDCE-reduction,[1],less than 1%
same,strain VS maximum VC utilization rate,[2],7.8×10^−10 μmol Cl^− (cell·d)^−1
